According to BindingDB's records for doi:10.1021/jm00117a011 (University of Kansas, 1988):

Target: Adenosylhomocysteinase (Bos taurus)
Assay: Evaluated for the 50% inhibition of bovine-liver S-Adenosyl-homocysteine (AdoHcy) hydrolase

| IC50 | Structure (SMILES) |
| --- | --- |
| 930 nM | CC(C)=CCn1cnc2c(N)ncnc21 [9-(3-Methyl-but-2-enyl)-9H-purin-6-ylamine] |
| 950 nM | Nc1ncnc2c1ncn2C/C=C/C(O)CO (stereo not given) [5-(6-Amino-purin-9-yl)-pent-3-ene-1,2-diol] |
| 1230 nM | Nc1nccc2c1ncn2C/C=C/CO [4-(4-Amino-imidazo[4,5-c]pyridin-1-yl)-but-2-en-1-ol] |
| 1000 nM | Nc1ncnc2c1ncn2CC#CCO |

Target: Adenosylhomocysteinase (Bos taurus)
Assay: as above
Remark: another data set of the same source

| Ki | Structure (SMILES) |
| --- | --- |
| 110 nM | Nc1ncnc2c1ncn2CC=C(CO)CO [2-[2-(6-Amino-purin-9-yl)-ethylidene]-propane-1,3-diol] |
| 200 nM | Nc1ncnc2c1ncn2C/C=C\[C@@H](O)CO [5-(6-Amino-purin-9-yl)-pent-3-ene-1,2-diol] |
| 90 nM | Nc1nccc2c1ncn2C/C=C\[C@@H](O)CO [5-(4-Amino-imidazo[4,5-c]pyridin-1-yl)-pent-3-ene-1,2-diol] |

Continued, molecule first:

| Structure (SMILES) | Ki |
| --- | --- |
| Nc1nccc2c1ncn2CC#CCO [4-(4-Amino-imidazo[4,5-c]pyridin-1-yl)-but-2-yn-1-ol] | 160 nM |
| Nc1ncnc2c1ncn2C/C=C/CO | 330 nM |
| Nc1nccc2c1ncn2CC=C(CO)CO [2-[2-(4-Amino-imidazo[4,5-c]pyridin-1-yl)-ethylidene]-propane-1,3-diol] | 166 nM |
| C/C(=C\Cn1cnc2c(N)ncnc21)CO [4-(6-Amino-purin-9-yl)-2-methyl-but-2-en-1-ol] | 500 nM |
| C/C(=C/Cn1cnc2c(N)ncnc21)CO [4-(6-Amino-purin-9-yl)-2-methyl-but-2-en-1-ol] | 170 nM |
| Nc1ncnc2c1ncn2C/C=C(\CO)[C@@H](O)CO | > 1000 nM |
| Nc1ncnc2c1ncn2C/C=C\CO | 125 nM |
| Nc1nccc2c1ncn2C/C=C\CO [4-(4-Amino-imidazo[4,5-c]pyridin-1-yl)-but-2-en-1-ol] | 200 nM |
